Calls of active or inactive are those of the source. No cut-off for these calls is given here.
Experiments:
[1] = system: Mus musculus; assay: AUC (0 to 8 hrs) in NMRI mouse at 10 mg/kg, po by UPLC-MS/MS method; format: ADME, organism-based, Plasma; parameters: time < 8 hr, dose 10 mg/kg, route oral; details: in vivo
[2] = system: Mus musculus; assay: Oral bioavailability in NMRI mouse at 10 mg/kg by UPLC-MS/MS method; format: ADME, organism-based; details: in vivo
[3] = system: Trypanosoma brucei rhodesiense; assay: Trypanocidal activity against bloodstream form of Trypanosoma brucei rhodesiense STIB900 infected in twice daily po dosed mouse; format: functional
[4] = Inhibition of Trypanosoma brucei N-myristoyltransferase assessed as transfer of [3H]-myristic acid to a biotinylated substrate peptide (GCGGSKVKPQPPQAK(biotin)-amide by scintillation proximity assay
[5] = system: MRC5; assay: cells; details: Homo sapiens, MRC5, 69 h
Description: Antiproliferative activity against human MRC5 cells assessed as reduction cell viability incubated for 69 hrs by rezasurin dye based assay

[6] = system: Trypanosoma brucei; assay: microbe, parasite or virus in culture; details: BSF427, 69 h
Description: Antitrypanosomal activity against Trypanosoma brucei BSF427 expressing VSG118 infected in human MRC5 cells assessed as reduction cell viability incubated for 69 hrs by rezasurin dye based assay

[7] = system: Trypanosoma brucei brucei; assay: Trypanocidal activity against bloodstream form of Trypanosoma brucei beucei GVR35 infected in NMRI mouse stage 2 human African trypanosomiasis model at 150 mg/kg, po bid for 5 days; format: functional, organism-based; parameters: dose 150 mg/kg
[8] = Plasma protein binding in mouse; format: ADME, organism-based; details: read-out: PPB (converted)
[9] = system: Trypanosoma brucei brucei; assay: Trypanocidal activity against bloodstream form of Trypanosoma brucei brucei S427 infected in mouse stage 1 HAT model at […], po bid for 4 days; format: functional, organism-based
[10] = system: Trypanosoma brucei rhodesiense; assay: Trypanocidal activity against bloodstream form of Trypanosoma brucei rhodesiense STIB900 infected in mouse stage 1 HAT model at 50 mg/kg, po bid for 4 days; format: functional, organism-based; parameters: dose 50 mg/kg
[11] = system: Mus musculus; assay: (§1) Maximum tolerated dose in orally twice daily dosed mouse; format: ADME, organism-based; details: in vivo, po
[12] = molecular target: Voltage-gated inwardly rectifying potassium channel KCNH2 (Homo sapiens, UniProt Q12809); assay: Inhibition of human ERG
[13] = system: Mus musculus; assay: Toxicity in bloodstream form of Trypanosoma brucei beucei GVR35 infected NMRI mouse stage 2 human African trypanosomiasis model at 100 mg/kg, po bid for 5 days; format: organism-based; parameters: dose 100 mg/kg, route oral; details: in vivo, 120 h
[14] = system: Trypanosoma brucei brucei; assay: Trypanocidal activity against bloodstream form of Trypanosoma brucei beucei GVR35 infected in NMRI mouse stage 2 human African trypanosomiasis model at 100 mg/kg, po bid for 8 days followed by three rounds of 3 day dosing at 100 mg/kg with two day drug holiday between rounds; format: functional, organism-based
[15] = molecular target: T1, Glycylpeptide N-tetradecanoyltransferase 1 (Homo sapiens, UniProt P30419); assay: Inhibition of human N-myristoyltransferase 1 assessed as transfer of [3H]-myristic acid to a biotinylated substrate peptide (GCGGSKVKPQPPQAK(biotin)-amide by scintillation proximity assay
T1 sequence (P30419 whole entry): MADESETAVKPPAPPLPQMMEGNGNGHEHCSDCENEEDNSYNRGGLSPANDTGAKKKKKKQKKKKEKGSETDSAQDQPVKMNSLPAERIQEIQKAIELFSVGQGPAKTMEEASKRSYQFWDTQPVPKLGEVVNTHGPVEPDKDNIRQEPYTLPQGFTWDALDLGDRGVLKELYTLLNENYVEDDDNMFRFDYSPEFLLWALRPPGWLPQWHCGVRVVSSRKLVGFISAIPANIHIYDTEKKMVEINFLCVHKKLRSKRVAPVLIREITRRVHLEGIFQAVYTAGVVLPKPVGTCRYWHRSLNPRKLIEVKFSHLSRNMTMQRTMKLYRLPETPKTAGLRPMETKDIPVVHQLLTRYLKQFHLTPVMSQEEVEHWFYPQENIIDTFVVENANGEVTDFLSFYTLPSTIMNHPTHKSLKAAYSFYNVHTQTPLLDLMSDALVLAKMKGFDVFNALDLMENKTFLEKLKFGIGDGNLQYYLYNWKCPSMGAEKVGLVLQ

[16] = Selectivity index, IC50 for human N-myristoyltransferase to EC50 for Trypanosoma brucei; format: functional
[17] = Ratio of drug level in brain to blood in wild type NMRI mouse at 2 mg free base/kg, iv by UPLC-MS/MS method; format: ADME, organism-based; details: brain and blood, read-out: BBR
[18] = Ratio of drug level in brain to blood in mdr1a-deficient mouse; format: ADME, organism-based; details: brain and blood, read-out: BBR
[19] = system: Mus musculus; assay: Toxicity in bloodstream form of Trypanosoma brucei beucei GVR35 infected NMRI mouse stage 2 human African trypanosomiasis model at 50 mg/kg, po bid for 5 days; format: organism-based; parameters: dose 50 mg/kg, route oral; details: in vivo, 120 h
[20] = system: Trypanosoma brucei brucei; assay: Trypanocidal activity against bloodstream form of Trypanosoma brucei beucei GVR35 infected in NMRI mouse stage 2 human African trypanosomiasis model at 25 mg/kg, po bid for 10 days; format: functional, organism-based; parameters: dose 25 mg/kg
[21] = system: Trypanosoma brucei brucei; assay: Trypanocidal activity against bloodstream form of Trypanosoma brucei beucei GVR35 infected in NMRI mouse stage 2 human African trypanosomiasis model at 50 mg/kg, po bid for 8 days; format: functional, organism-based; parameters: dose 50 mg/kg
[22] = system: Mus musculus; assay: Toxicity in bloodstream form of Trypanosoma brucei beucei GVR35 infected NMRI mouse stage 2 human African trypanosomiasis model at 50 mg/kg, po bid for 8 days; format: organism-based; parameters: dose 50 mg/kg, route oral; details: in vivo, 192 h
[23] = system: Trypanosoma brucei brucei; assay: Trypanocidal activity against Trypanosoma brucei beucei GVR35 infected in NMRI mouse acute model dosed twice daily orally for 4 days; format: functional
[24] = system: Trypanosoma brucei brucei; assay: Trypanocidal activity against Trypanosoma brucei beucei S427 infected in NMRI mouse acute model dosed twice daily orally for 4 days; format: functional
[25] = as §1; format: ADME, organism-based; details: in vivo, po
[26] = system: Mus musculus; assay: Toxicity in bloodstream form of Trypanosoma brucei beucei GVR35 infected NMRI mouse stage 2 human African trypanosomiasis model at 150 mg/kg, po bid for 5 days; format: organism-based; parameters: dose 150 mg/kg, route oral; details: in vivo, 120 h

Voltage-gated inwardly rectifying potassium channel KCNH2, sequence (Q12809 whole entry): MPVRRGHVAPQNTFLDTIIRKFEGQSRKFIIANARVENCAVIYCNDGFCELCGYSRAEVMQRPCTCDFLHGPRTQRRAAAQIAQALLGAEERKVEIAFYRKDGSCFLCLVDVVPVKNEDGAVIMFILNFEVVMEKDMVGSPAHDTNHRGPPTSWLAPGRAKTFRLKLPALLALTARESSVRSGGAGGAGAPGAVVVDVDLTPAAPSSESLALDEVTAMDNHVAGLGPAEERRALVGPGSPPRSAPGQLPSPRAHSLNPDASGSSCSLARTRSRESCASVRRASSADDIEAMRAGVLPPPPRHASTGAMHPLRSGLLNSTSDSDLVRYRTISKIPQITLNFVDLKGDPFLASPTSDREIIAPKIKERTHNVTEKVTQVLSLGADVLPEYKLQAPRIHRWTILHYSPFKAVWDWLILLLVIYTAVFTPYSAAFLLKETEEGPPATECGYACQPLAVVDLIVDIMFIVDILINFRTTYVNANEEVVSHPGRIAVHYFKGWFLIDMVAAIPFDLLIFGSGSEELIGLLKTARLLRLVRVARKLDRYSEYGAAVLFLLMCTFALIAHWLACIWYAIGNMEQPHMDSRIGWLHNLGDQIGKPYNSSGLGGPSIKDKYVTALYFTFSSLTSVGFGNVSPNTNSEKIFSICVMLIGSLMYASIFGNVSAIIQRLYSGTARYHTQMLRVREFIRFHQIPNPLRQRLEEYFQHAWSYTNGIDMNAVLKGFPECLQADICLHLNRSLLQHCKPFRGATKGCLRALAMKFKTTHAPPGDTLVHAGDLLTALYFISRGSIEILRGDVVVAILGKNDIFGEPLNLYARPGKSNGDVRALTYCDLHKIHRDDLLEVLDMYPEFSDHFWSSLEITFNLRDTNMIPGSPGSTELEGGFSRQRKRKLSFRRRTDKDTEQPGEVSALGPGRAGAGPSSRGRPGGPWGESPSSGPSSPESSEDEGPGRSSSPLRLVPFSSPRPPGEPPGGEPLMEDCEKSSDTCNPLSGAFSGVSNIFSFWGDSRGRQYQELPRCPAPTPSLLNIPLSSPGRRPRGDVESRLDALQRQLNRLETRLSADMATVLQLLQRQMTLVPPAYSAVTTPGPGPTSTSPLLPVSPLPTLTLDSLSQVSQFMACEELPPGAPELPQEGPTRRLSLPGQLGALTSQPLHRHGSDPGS

Compound	IC50 [4] [nM]	EC50 [5] [nM]	EC50 [6] [nM]	further results
Cc1c(NS(=O)(=O)c2c(Cl)cc(-c3ccnc(N4CCNCC4)c3)cc2Cl)c(CC(C)C)nn1C [ZELENIRSTAT]	–	–	–	AUC [1]: 3400 µg/min/mL; F [2]: 93%; MCD [3]: 6 mg/kg
Cc1nn(C)c(C)c1N(C(F)F)S(=O)(=O)c1c(Cl)cc(CCCN2CCN3CCC[C@@H]3C2)cc1Cl	2	3100	–	–
Cc1nn(C)c(C)c1NS(=O)(=O)c1c(Cl)cc(C#Cc2cncn2C)cc1Cl	660	16600	3900	–
Cc1nn(C)c(C)c1NS(=O)(=O)c1ccc(CCCC2CCN(C)CC2)cc1	7	18700	30	–
Cc1nn(C)c(C)c1N(C(F)F)S(=O)(=O)c1c(Cl)cc(CCCOC[C@H]2CCCCN2C)cc1Cl	2	3500	–	–
Cc1nn(C)c(C)c1N(CC(F)(F)F)S(=O)(=O)c1c(Cl)cc(CCCC2CCN(C)CC2)cc1Cl	–	–	–	inhibition [7]: inactive
Cc1nn(C)c(C)c1NS(=O)(=O)c1ccc(CCCCC2CCN(C)CC2)cc1	3	3600	16	–
Cc1nn(C)c(C)c1N(C(F)F)S(=O)(=O)c1c(Cl)cc(CCCOC[C@@H]2CCCCN2C)cc1Cl	2	3900	–	–
Cc1nn(C)c(C)c1NS(=O)(=O)c1c(Cl)cc(CCCC2CCN(C)CC2)cc1Cl	2	2200	2	–
Cc1nn(C)c(C)c1N(C(F)F)S(=O)(=O)c1c(Cl)cc(CCCOC[C@H]2CCCN2C)cc1Cl	2	3200	–	–
Cc1nn(C)c(C)c1NS(=O)(=O)c1c(Cl)cc(-c2ccnc(N3CCNCC3)c2)cc1Cl	–	–	–	fraction unbound [8]: 0.06; Activity [9]: Active; Activity [10]: Active; AUC [1]: 392 µg/min/mL; F [2]: 20%; MCD [3]: 50 mg/kg
Cc1nn(C)c(C)c1NS(=O)(=O)c1c(Cl)cc(CCCN2CCN(C)CC2)cc1Cl	3	31400	–	–
Cc1nn(C)c(C)c1N(C(F)F)S(=O)(=O)c1c(Cl)cc(CCCC2CCN(C)CC2)cc1Cl	–	–	–	MTD [11]: 100 mg/kg; IC50 [12]: 600 nM; Activity [13]: Toxic; inhibition [14]: Active
Cc1nn(C)c(C)c1NS(=O)(=O)c1c(Cl)cc(CCCC2CCNCC2)cc1Cl	2	2500	2	–
Cc1nn(C)c(C)c1NS(=O)(=O)c1ccc(CCCCC2CCNCC2)cc1	6	5300	9	–
Cc1nn(C)c(C)c1N(C(F)F)S(=O)(=O)c1c(Cl)cc(CCCOC[C@@H]2CCCN2C)cc1Cl	2	2800	–	–
Cc1nn(C)cc1NS(=O)(=O)c1c(Cl)cc(-c2ccnc(N3CCNCC3)c2)cc1Cl	4	250	2	–
Cc1nn(C)c(C)c1NS(=O)(=O)c1c(Cl)cc(CCCCC2CCNCC2)cc1Cl	3	370	0.6	–
Cc1c(NS(=O)(=O)c2c(Cl)cc(-c3ccnc(N4CCNCC4)c3)cc2Cl)cnn1C	–	1230	24	–
Cc1nn(C)c(CC(C)C)c1NS(=O)(=O)c1c(Cl)cc(-c2ccnc(N3CCNCC3)c2)cc1Cl	6	640	5	–
Cc1nn(C)c(C)c1NS(=O)(=O)c1c(Cl)cc(C#CCN2CCN(C)CC2)cc1Cl	160	> 50000	660	IC50 [15]: 4600 nM; Selectivity Index [16]: 7
Cc1nn(C)c(C)c1N(C)S(=O)(=O)c1c(Cl)cc(Br)cc1Cl	330	27200	5100	IC50 [15]: 3580 nM; Kp [17]: 3.7; Kp [18]: 3.7
Cc1nn(C)c(C)c1NS(=O)(=O)c1c(Cl)cc(Br)cc1Cl	500	> 50000	16000	IC50 [15]: 7300 nM; Kp [17]: < 0.1; Kp [18]: < 0.1
Cc1nn(C)c(C)c1N(C(F)F)S(=O)(=O)c1c(Cl)cc(CCCCC2CCN(C)CC2)cc1Cl	–	–	–	MTD [11]: 50 mg/kg; Activity [19]: Toxic; inhibition [20]: inactive; inhibition [21]: inactive; Activity [22]: Toxic; MCD [23]: 25 mg/kg; MCD [24]: 6 mg/kg
Cc1nn(C)c(C)c1NS(=O)(=O)c1c(Cl)cc(CCCCC2CCN(C)CC2)cc1Cl	1	180	0.5	–
Cn1cc(NS(=O)(=O)c2c(Cl)cc(-c3ccnc(N4CCNCC4)c3)cc2Cl)cn1	–	10300	370	–
Cc1nn(C)c(C)c1N(CC(F)(F)F)[S+](=O)([O-])c1c(Cl)cc(CCCC2CCN(C)CC2)cc1Cl	–	–	–	MTD [25]: 150 mg/kg; Activity [26]: Non-toxic
Cc1nn(C)c(C)c1NS(=O)(=O)c1ccc(CCCC2CCNCC2)cc1	9	> 50000	110	–
Cc1nn(C)c(C)c1NS(=O)(=O)c1ccc(CCCN2CCN(C)CC2)cc1	120	> 50000	750	IC50 [15]: 3500 nM; Selectivity Index [16]: 4.7

From ChEMBL document CHEMBL3352323, “Lead optimization of a pyrazole sulfonamide series of Trypanosoma brucei N-myristoyltransferase inhibitors: identification and evaluation of CNS penetrant compounds as potential treatments for stage 2 human African trypanosomiasis” (J Med Chem, 2014)
